What was measured:
[1] = target: T1, Organic cation/carnitine transporter 2 (Homo sapiens, UniProt O76082); experiment: TP_TRANSPORTER: inhibition of TEA uptake (TEA: 20 uM, MPP+: 5000 uM) in OCTN2-expressing HeLa cells; format: functional, cell-based; parameters: scale not given: the % may be the effect or the level left
T1 sequence (O76082 whole entry): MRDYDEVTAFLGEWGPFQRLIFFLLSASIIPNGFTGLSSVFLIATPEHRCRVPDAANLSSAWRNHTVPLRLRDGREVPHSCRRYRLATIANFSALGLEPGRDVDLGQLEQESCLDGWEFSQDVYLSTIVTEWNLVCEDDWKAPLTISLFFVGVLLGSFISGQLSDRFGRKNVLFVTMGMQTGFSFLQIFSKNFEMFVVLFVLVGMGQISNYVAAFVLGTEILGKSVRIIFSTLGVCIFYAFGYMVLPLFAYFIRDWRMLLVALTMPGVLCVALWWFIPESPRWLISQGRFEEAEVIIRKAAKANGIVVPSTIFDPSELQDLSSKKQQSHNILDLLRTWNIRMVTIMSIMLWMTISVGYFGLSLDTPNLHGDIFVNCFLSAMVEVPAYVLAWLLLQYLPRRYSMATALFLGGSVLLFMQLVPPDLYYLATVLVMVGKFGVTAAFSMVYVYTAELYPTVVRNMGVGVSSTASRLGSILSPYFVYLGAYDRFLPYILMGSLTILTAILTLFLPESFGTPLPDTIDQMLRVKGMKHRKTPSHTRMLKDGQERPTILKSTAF

[2] = target: T1, Organic cation/carnitine transporter 2; experiment: TP_TRANSPORTER: inhibition of TEA uptake (TEA: 20 uM, Amphetamine: 5000 uM) in OCTN2-expressing HeLa cells; format: functional, cell-based
[3] = target: T2, OCTN2 (organic cation/carnitine transporter 2) (Homo sapiens, UniProt O76082); experiment: in vitro; conditions: HeLa cells that express OCTN2, probe TEA, 20 uM
T2 sequence (O76082 whole entry): T1 sequence (O76082 whole entry)
Description: TP_TRANSPORTER: inhibition of TEA uptake (TEA: 20 uM, Choline: 5000 uM) in OCTN2-expressing HeLa cells

[4] = target: T2, OCTN2 (organic cation/carnitine transporter 2); experiment: in vitro; conditions: HeLa cells that express OCTN2, probe TEA, 20 uM; remark: listed apart in the source
Description: TP_TRANSPORTER: inhibition of TEA uptake (TEA: 20 uM, Cimetidine: 5000 uM) in OCTN2-expressing HeLa cells

[5] = target: T1, Organic cation/carnitine transporter 2; experiment: TP_TRANSPORTER: inhibition of TEA uptake (TEA: 20 uM, Guanidine: 5000 uM) in OCTN2-expressing HeLa cells; format: functional, cell-based
[6] = target: T2, OCTN2 (organic cation/carnitine transporter 2); experiment: TP_TRANSPORTER: inhibition of TEA uptake (TEA: 20 uM, Methamphetamine: 5000 uM) in OCTN2-expressing HeLa cells; format: functional, cell-based; parameters: scale not given: the % may be the effect or the level left; conditions: HeLa cells that express OCTN2, probe TEA, read-out: Activity
[7] = target: T2, OCTN2 (organic cation/carnitine transporter 2); experiment: in vitro; conditions: HeLa cells that express OCTN2, probe TEA, 20 uM; remark: listed apart in the source
Description: TP_TRANSPORTER: inhibition of TEA uptake (TEA: 20 uM, Nicotine: 5000 uM) in OCTN2-expressing HeLa cells

[8] = target: T2, OCTN2 (organic cation/carnitine transporter 2); experiment: TP_TRANSPORTER: inhibition of TEA uptake (TEA: 20 uM Procainamide: 5000 uM) in OCTN2-expressing HeLa cells; format: functional, cell-based; parameters: scale not given: the % may be the effect or the level left; conditions: HeLa cells that express OCTN2, probe TEA, read-out: Activity

Work on `C[n+]1ccc(-c2ccccc2)cc1` yielded an Activity [1] of 39%.
With `CC(N)Cc1ccccc1` (stereo not drawn) [AMPHETAMINE] the Activity [2] was “is not an inhibitor [-]”.
Work on `C[N+](C)(C)CCO` [CHOLINE] yielded an activity at 5000 µM [3] of 75%.
With `CN/C(=N/CCSCc1nc[nH]c1C)NC#N` [CIMETIDINE] the activity at 5000 µM [4] was 39%.
In the case of `N=C(N)N` [GUANIDINE], the Activity [5] was “is not an inhibitor [-]”.
`CN[C@@H](C)Cc1ccccc1` [METHAMPHETAMINE] gave an activity at 5000 µM [6] of 66%.
`CN1CCC[C@H]1c1cccnc1` [NICOTINE] was tested, and the activity at 5000 µM [7] was 44%.
`CCN(CC)CCNC(=O)c1ccc(N)cc1` [PROCAINAMIDE] showed an activity at 5000 µM [8] of 39%.

Source: ChEMBL document CHEMBL2073822, “cDNA sequence, transport function, and genomic organization of human OCTN2, a new member of the organic cation transporter family” (Biochem Biophys Res Commun, 1998)
